# Laboratory results taken from patent US11318190B2, “Methods and compositions for treating liver disease” (UNITED STATES GOVERNMENT AS REPRESENTED BY THE DEPARTMENT …, priority 2017, dated 2022).
# Tests used:
# [1] = test system: human hepatic stellate cells (hHSC); assay: hHSC activation by cholangiocyte supernatants from treated mice (qPCR); format: cell-based
# Procedure: In vitro experiments were performed in human hepatic stellate cells (hHSC) that were purchased from ScienCell Research Laboratories (Carlsbad, Calif.) that were maintained in standard conditions.
# […] Activation of hHSCs was determined by qPCR for FN-1, TGF-β1, α-SMA, and collagen type-1a (Kennedy, L L et al., Knockout of microRNA-21 reduces biliary hyperplasia and liver fibrosis in cholestatic bile duct ligated mice, Lab Invest 96:1256-1267 (2016)).
# [2] = test system: dnTGF-βRII mice; assay: dnTGF-βRII mice 32-34 wk (late stage PBC model) treated 1 wk by osmotic minipump; format: in vivo, mouse; settings: for intrahepatic bile duct mass (IBDM, CK-19): 1 wk minipump
# Procedure: (§1) Briefly, we used wild-type (WT), dnTGFβRII 12 wk and dnTGFβRII 34 wk mice treated with control or SR antagonist (SCT 5-27) minipump (10 μg/kg/day) for 1 wk. Hepatic damage was shown by H&E. IBDM and cholangiocyte proliferation were measured by immunohistochemistry for CK-19 and Ki67, respectively. Biliary apoptosis was evaluated by TUNEL staining. Senescence was measured in cholangiocytes by immunofluorescence for CCL2 or p16 co-stained with CK-19 (to image bile ducts) and SA-β-Galactosidase activity. Hepatic fibrosis was assessed by qPCR for collagen-1a and α-SMA in total liver, and quantification of Sirius Red staining. Hepatic stellate cell (HSC) activation was evaluated by immunofluorescence (IF) for Syp-9. HSC senescence was evaluated by IF for CCL2 or p16 co-stained with desmin (to visualize HSCs). Secretin levels in serum and bile were measured by EIA. Bile and serum were obtained from human control, early PBC and advanced PBC patients, and secretin was evaluated by EIA.
# (§2) All animal procedures were performed according to protocols approved by the Baylor Scott & White Health IACUC Committee. Transgenic mice expressing a dominant-negative form of the human transforming growth factor-beta receptor II (dnTGF-βRII) were obtained from Dr. M. Eric Gershwin at UC Davis Health (Sacramento, Calif.), and background-matched wild-type (WT, strain C57BL/6) mice were purchased from Charles River Laboratories (Wilmington, Mass.); the breeding colony is established in our animal facility. Animals were maintained in micro-isolator cages in a temperature-controlled environment with 12/12-hr light/dark cycles and fed ad libitum standard chow with free access to drinking water. Studies were performed in 12 wk-old WT mice, and 12 wk-old (mimic early stage PBC) and 32 wk-old (mimic late stage PBC) female and male dnTGF-βRII mice (25-30 gm) that were treated with either saline, secretin (Sct; 2.5 nmoles/kg body weight per day; Bachem, Torrance, Calif.) or the secretin receptor (SR) antagonist, Sec 5-27 (10 μg/kg body weight per day; Thermo Fisher Scientific, Waltham, Mass.) for 1 wk by intraperitoneally implanted osmotic minipump. Liver tissue samples and blocks (formalin-fixed, paraffin-embedded and OCT-embedded), serum, bile, cholangiocytes, and cholangiocyte supernatants (after incubation at 37° C. for 4 hr) were collected as described.
# (§3) Hematoxylin and eosin (H&E) staining was performed in formalin-fixed, paraffin-embedded liver sections (4-5 μm, 3 samples from 3 different animals) to determine liver morphology. H&E stained liver sections were evaluated by a board-certified pathologist to assess the degree of lobular damage, hepatic necrosis and portal inflammation. At least 10 different portal areas were evaluated for each parameter. Liver sections were examined in a coded fashion by BX-51 light microscopy (Olympus, Tokyo, Japan) equipped with a camera (See, Mancinelli, R et al., Ischemia reperfusion of the hepatic artery induces the functional damage of large bile ducts by changes in the expression of angiogenic factors. Am J Physiol Gastrointest Liver Physiol 2015; 309:G865-873 (2015); Taffetani S et al., Prolactin stimulates the proliferation of normal female cholangiocytes by differential regulation of Ca2+-dependent PKC isoforms, BMC Physiol 7:6 (2007)).
# (§4) Serum levels of alkaline phosphatase (ALP) and γ-glutamyltransferase (γGT) are commonly used to diagnose PBC (Heathcote, E J, Management of primary biliary cirrhosis. The American Association for the Study of Liver Diseases practice guidelines, Hepatology 31:1005-1013 (2000)); therefore, were measured serum levels of ALP and γGT in mouse serum samples using the Alkaline Phosphatase Assay Kit and γ-Glutamyltransferase Activity Colorimetric Assay Kit, respectively (Abcam; Cambridge, Mass.).
# (§5) Early stage PBC is identified by cholangiocyte proliferation, whereas late stage PBC is characterized by ductopenia. […]
# [3] = test system: Mdr2−/− mice; settings: cited from earlier work
# [4] = test system: dnTGF-βRII mice; assay: dnTGF-βRII mice 12 wk (early stage PBC model) treated 1 wk by osmotic minipump; format: in vivo, mouse; settings: dnTGF-βRII 12 wk; for intrahepatic bile duct mass (IBDM, CK-19): 1 wk minipump
# Procedure: as §1, §2, §3, §4, §5
# [5] = dnTGF-βRII 32/34 wk, vs saline treated
# [6] = dnTGF-βRII 32/34 wk, listed as SR antagonist
# [7] = vs saline treated, listed as SR antagonist
substance,measurement,setting,value
15-lysine-secretin-(5-27) [SCT 5-27],"expression of FN-1, TGF-β1, α-SMA and collagen type-1a in hHSCs",[1]; cholangiocyte supernatants from treated dnTGF-βRII mice 12 wks,reduced
same,"expression of FN-1, TGF-β1, α-SMA and collagen type-1a in hHSCs",[1]; cholangiocyte supernatants from treated dnTGF-βRII mice 34 wks,enhanced
same,"biliary senescence (p16, p18, p21, CCL2)",[2]; dnTGF-βRII 32/34 wk,further increased
same,cholangiocyte apoptosis (TUNEL),[2]; dnTGF-βRII 32/34 wk,further increased
same,"collagen content / deposition (Sirius Red), hepatic fibrosis",[2]; dnTGF-βRII 32/34 wk,increased
same,"Sct, SR, CFTR and AE2 expression",[2]; [5],further decrease
same,"intrahepatic bile duct mass (IBDM, CK-19)",[2]; [5],further reduced
same,"intrahepatic bile duct mass (IBDM, CK-19)","[2]; dnTGF-βRII 32/34 wk, vs saline treated, listed as SR antagonist",decreased
same,"biliary senescence (p16, p18, p21, CCL2)",[2]; [6],increased
same,cholangiocyte apoptosis (TUNEL),[2]; [6],exacerbated
same,"collagen content / deposition (Sirius Red), hepatic fibrosis",[2]; [6],further increased
same,HSC activation (SYP-9),[2]; dnTGF-βRII 34 wk,increased
same,biliary growth / cholangiocyte proliferation,[2]; dnTGF-βRII 34 wk,further reduced
same,liver damage (H&E),[2]; dnTGF-βRII 34 wk,exacerbated
same,secretin levels (serum; serum and bile),[2]; dnTGF-βRII 34 wk,reduced
same,HSC activation (SYP-9),"[2]; dnTGF-βRII 34 wk, listed as SR antagonist",enhanced
same,hepatic fibrosis and HSC activation,[3]; BDL and Mdr2−/− mouse model of PSC,reduced
same,TGF-β1/TGF-β1 receptor axis expression,[3]; Mdr2−/− mice,decreased
same,biliary mass and HSCs activation,[3]; Mdr2−/− mice,reduced
same,HSC activation (SYP-9 staining),[4],reduced
same,HSC senescence,[4],increased
same,"biliary senescence (p16, p18, p21, CCL2)",[4],reduced
same,cholangiocyte apoptosis (TUNEL-positive cholangiocytes),[4],enhanced
same,cholangiocyte proliferation (Ki67),[4],reduced
same,"liver damage (H&E: portal inflammation, inflammatory infiltration, lobular necrosis)",[4],reduced
same,"secretin levels (serum and bile, EIA)",[4],reduced
same,"Sct, SR, CFTR and AE2 expression",[4]; vs saline treated,reduced
same,"collagen content / deposition (Sirius Red), hepatic fibrosis",[4]; vs saline treated,significantly reduced
same,serum levels of ALP and γGT,[4]; vs saline treated,reduced
same,"intrahepatic bile duct mass (IBDM, CK-19)",[4]; vs saline treated,significantly reduced
same,"intrahepatic bile duct mass (IBDM, CK-19)",[4]; [7],reduced
same,"collagen content / deposition (Sirius Red), hepatic fibrosis",[4]; [7],ameliorated
same,"biliary senescence (p16, p18, p21, CCL2)",[4]; listed as SR antagonist,decreased
same,cholangiocyte apoptosis (TUNEL-positive cholangiocytes),[4]; listed as SR antagonist,increased
same,"liver damage (H&E: portal inflammation, inflammatory infiltration, lobular necrosis)",[4]; listed as SR antagonist,ameliorated
